According to patent publication US7135466B2 (Kirin Beer Kabushiki Kaisha, priority 1999, dated 2006):
Where two headings read alike, the source gives them in different places.

Key:
PDGF-Ra = molecular target: T1, PDGF-Ra (Homo sapiens, UniProt P16234); test: Inhibitory activity against PDGF-Ra phosphorylation by PDGF-AA stimulation using G292; format: cell-based; conditions: for IC50: > means inhibition at indicated concentration not more than 50%, < and << not less than 50%, read-out: PDGF (E) IC50; for inhibition at 0.1 µM: G292, figure within parentheses in >100( ), at 100 nM, read-out: PDGF (E) inhibition (%) at 100 nM
T1 construct: host or cells: G-292 human osteosarcoma cells
T1 sequence (P16234 24-1089): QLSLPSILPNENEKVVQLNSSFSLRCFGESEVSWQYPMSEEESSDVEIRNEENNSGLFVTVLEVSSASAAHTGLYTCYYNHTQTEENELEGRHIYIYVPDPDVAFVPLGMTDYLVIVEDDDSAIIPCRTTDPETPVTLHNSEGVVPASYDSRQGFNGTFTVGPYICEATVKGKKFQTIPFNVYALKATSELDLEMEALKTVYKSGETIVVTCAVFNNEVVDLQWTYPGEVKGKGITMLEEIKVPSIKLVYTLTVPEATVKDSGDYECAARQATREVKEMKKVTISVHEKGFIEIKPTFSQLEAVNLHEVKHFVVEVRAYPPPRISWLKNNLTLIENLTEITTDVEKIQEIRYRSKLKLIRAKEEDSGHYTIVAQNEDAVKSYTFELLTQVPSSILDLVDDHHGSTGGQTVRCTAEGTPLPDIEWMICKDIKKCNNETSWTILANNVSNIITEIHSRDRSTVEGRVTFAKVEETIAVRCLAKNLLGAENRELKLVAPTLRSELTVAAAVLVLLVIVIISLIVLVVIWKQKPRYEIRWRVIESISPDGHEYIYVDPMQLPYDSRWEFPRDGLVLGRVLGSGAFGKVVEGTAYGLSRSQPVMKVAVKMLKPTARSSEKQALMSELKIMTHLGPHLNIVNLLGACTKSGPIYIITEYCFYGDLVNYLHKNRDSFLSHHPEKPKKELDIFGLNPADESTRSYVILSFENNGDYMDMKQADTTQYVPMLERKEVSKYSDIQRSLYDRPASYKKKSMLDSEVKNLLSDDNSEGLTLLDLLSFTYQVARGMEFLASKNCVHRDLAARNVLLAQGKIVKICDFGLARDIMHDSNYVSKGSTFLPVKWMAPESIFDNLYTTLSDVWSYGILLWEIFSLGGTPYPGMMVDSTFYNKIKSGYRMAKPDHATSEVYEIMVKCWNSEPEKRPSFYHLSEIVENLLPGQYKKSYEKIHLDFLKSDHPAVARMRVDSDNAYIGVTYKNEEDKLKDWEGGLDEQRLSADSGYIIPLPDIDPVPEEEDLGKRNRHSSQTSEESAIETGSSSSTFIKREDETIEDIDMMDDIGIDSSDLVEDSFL
How it was run: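 G-292 human osteosarcoma cells in 0.1% FBS medium overnight, given compound for 1 hr at 37° C, then PDGF-AA 50 ng/ml for 5 min. Lysates captured on anti-phosphotyrosine (PY-20) plates and probed with anti-PDGF-Ra plus HRP secondary; absorbance at 450 nm.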

c-kit = molecular target: T2, c-kit (Homo sapiens, UniProt P10721); test: Inhibitory activity against c-kit autophosphorylation (MO7e cells, h-SCF); format: cell-based; conditions: for IC50: MO7e cells, read-out: c-kit IC50; for inhibition at 1 µM: Mo7e, at 1000 nM
T2 construct: MO7e (human megakaryocytic leukemia cell line) which had been arrested for 20 hr; endogenous in cells; host or cells: MO7e human megakaryocytic leukemia cell line
T2 sequence (P10721 26-976): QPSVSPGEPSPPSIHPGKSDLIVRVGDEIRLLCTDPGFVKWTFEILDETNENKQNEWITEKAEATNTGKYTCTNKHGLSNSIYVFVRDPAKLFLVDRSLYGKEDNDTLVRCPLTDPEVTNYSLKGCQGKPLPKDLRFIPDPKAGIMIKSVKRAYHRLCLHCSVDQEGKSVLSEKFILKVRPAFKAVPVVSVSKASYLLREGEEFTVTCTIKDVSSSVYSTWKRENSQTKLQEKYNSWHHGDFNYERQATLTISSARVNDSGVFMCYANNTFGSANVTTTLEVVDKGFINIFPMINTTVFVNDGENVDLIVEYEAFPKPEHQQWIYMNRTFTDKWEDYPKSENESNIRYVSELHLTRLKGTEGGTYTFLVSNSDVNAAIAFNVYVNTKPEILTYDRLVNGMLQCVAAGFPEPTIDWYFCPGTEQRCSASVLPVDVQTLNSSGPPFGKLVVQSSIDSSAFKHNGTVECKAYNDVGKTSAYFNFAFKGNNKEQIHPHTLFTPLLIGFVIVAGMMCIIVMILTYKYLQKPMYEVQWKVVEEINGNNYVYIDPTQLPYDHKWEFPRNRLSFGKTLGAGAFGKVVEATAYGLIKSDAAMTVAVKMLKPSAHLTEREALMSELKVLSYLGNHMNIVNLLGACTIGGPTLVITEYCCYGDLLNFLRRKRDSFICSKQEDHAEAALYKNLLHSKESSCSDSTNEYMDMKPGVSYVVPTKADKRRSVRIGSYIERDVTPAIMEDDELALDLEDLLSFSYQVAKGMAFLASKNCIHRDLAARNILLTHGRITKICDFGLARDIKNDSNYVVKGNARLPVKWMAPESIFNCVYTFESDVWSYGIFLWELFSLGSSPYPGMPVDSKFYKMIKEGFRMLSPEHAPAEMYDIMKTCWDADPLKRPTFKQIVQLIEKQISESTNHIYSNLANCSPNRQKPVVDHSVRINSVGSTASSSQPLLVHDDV
How it was run: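 Ligand-induced c-kit tyrosine phosphorylation is measured in MO7e cells that were quiesced 20 hr and preincubated with compound for 1 hr prior to a 5 min pulse of 50 ng/ml human SCF. Phospho-c-kit is detected by anti-phosphotyrosine capture ELISA, A450.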

[1] = figure within parentheses in −( ) or >1000( )

IC50 (PDGF-Ra) [nM]	IC50 (c-kit; 50 ng/ml h-SCF) [nM]	inhibition at 1 µM (c-kit; [1]) [%]	inhibition at 0.1 µM (PDGF-Ra) [%]	IC50 (c-kit; h-SCF stimulation) [nM]	inhibition at 1 µM (c-kit; figure in parentheses in −( )) [%]	Structure (SMILES)
35	759					CCC(C(=O)NC(=S)Nc1ccc(Oc2ccnc3cc(OC)c(OC)cc23)cc1)c1ccccc1 (stereo not shown) [Example 747, N-{4-[(6,7-Dimethoxy-4-quinolyl)oxy]phenyl}-N′-(2-phenylbutanoyl)thiourea]
12		41				COc1cc2nccc(Oc3ccc(NC(=S)NC(=O)C4(C)CC4(Cl)Cl)cc3)c2cc1OC (stereo not shown) [Example 749, N-[(2,2-Dichloro-1-methylcyclopropyl)carbonyl]-N′-{4-[(6,7-dimethoxy-4-quinolyl)oxy]phenyl}thiourea]
17		43				COc1cc2nccc(Oc3ccc(NC(=S)NC(=O)C4(C)CC4(Cl)Cl)cc3Cl)c2cc1OC (stereo not shown) [Example 750, N-{3-Chloro-4-[(6,7-dimethoxy-4-quinolyl)oxy]phenyl}-N′-[(2,2-dichloro-1-methylcyclopropyl)carbonyl]thiourea]
> 100		9	28			CCCCCOc1ccc(C(=O)NC(=S)Nc2ccc(Oc3ccnc4cc(OC)c(OC)cc34)cc2)cc1 [Example 753, N-{4-[(6,7-Dimethoxy-4-quinolyl)oxy]phenyl}-N′-[4-(pentyloxy)benzoyl]thiourea]
26	323					COc1cc2nccc(Oc3ccc(NC(=S)NC(=O)C4C(C)(C)C4(C)C)cc3)c2cc1OC [Example 759]
> 100		44	37			COc1cc2nccc(Oc3ccc(NC(=S)NC(=O)C(OC)c4ccccc4)cc3)c2cc1OC (stereo not shown) [Example 761, N-{4-[(6,7-Dimethoxy-4-quinolyl)oxy]phenyl}-N′-(2-methoxy-2-phenylacetyl)thiourea]
13		39				COc1cc2nccc(Oc3ccc(NC(=S)NC(=O)C(C)Oc4ccccc4Cl)cc3)c2cc1OC (stereo not shown) [Example 763, N-[2-(2-Chlorophenoxy)propanoyl]-N′-{4-[(6,7-dimethoxy-4-quinolyl)oxy]phenyl}thiourea]
14		19				COc1cc2nccc(Oc3ccc(NC(=S)NC(=O)C(C)Oc4ccccc4Cl)cc3Cl)c2cc1OC (stereo not shown) [Example 764, N-{3-Chloro-4-[(6,7-dimethoxy-4-quinolyl)oxy]phenyl}-N′-[2-(2-chlorophenoxy)propanoyl]thiourea]
21	937					COc1cc2nccc(Oc3ccc(NC(=S)NC(=O)C4CCCO4)cc3)c2cc1OC (stereo not shown) [Example 765, N-{4-[(6,7-Dimethoxy-4-quinolyl)oxy]phenyl}-N′-tetrahydro-2-furanylcarbonylthiourea]
> 100	550		13			COc1cc2ncnc(Oc3ccc(OC(=O)c4ccccc4)cc3)c2cc1OC [Example 772, 4-[(6,7-Dimethoxy-4-quinazolinyl)oxy]phenyl benzoate]
11	11					COc1ccccc1NCCOc1ccc(Oc2ccnc3cc(OC)c(OC)cc23)cc1 [Example 777, N-(2-{4-[(6,7-Dimethoxy-4-quinolyl)oxy]phenoxy}ethyl)-N-(2-methoxyphenyl)amine]
< 10	107					COc1cccc(NCCOc2ccc(Oc3ccnc4cc(OC)c(OC)cc34)cc2)c1 [Example 779, N-(2-{4-[(6,7-Dimethoxy-4-quinolyl)oxy]phenoxy}ethyl)-N-(3-methoxyphenyl)amine]
< 3	107					COc1cc2nccc(Oc3ccc(OCCCOc4ccc(C)cc4)cc3)c2cc1OC [Example 790, 6,7-Dimethoxy-4-{4-[3-(4-methylphenoxy)propoxy]phenoxy}quinoline]
3	208					COc1cc2nccc(Oc3ccc(OCCCOc4cccc(C)c4)cc3)c2cc1OC [Example 791, 6,7-Dimethoxy-4-{4-[3-(3-methylphenoxy)propoxy]phenoxy}quinoline]
6	301					COc1cc2nccc(Oc3ccc(OCCCOc4ccccc4C)cc3)c2cc1OC [Example 792, 6,7-Dimethoxy-4-{4-[3-(2-methylphenoxy)propoxy]phenoxy}quinoline]
6	335					COc1cccc(OCCCOc2ccc(Oc3ccnc4cc(OC)c(OC)cc34)cc2)c1 [Example 793, 6,7-Dimethoxy-4-{4-[3-(3-methoxyphenoxy)propoxy]phenoxy}quinoline]

IC50 (PDGF-Ra) [nM]	IC50 (c-kit; 50 ng/ml h-SCF) [nM]	inhibition at 1 µM (c-kit; [1]) [%]	inhibition at 0.1 µM (PDGF-Ra) [%]	IC50 (c-kit; h-SCF stimulation) [nM]	inhibition at 1 µM (c-kit; figure in parentheses in −( )) [%]	Structure (SMILES)
14	192					COc1ccc(OCCCOc2ccc(Oc3ccnc4cc(OC)c(OC)cc34)cc2)cc1 [Example 794, 6,7-Dimethoxy-4-{4-[3-(4-methoxy-phenoxy)propoxy]phenoxy}quinoline]
5	336					COc1cc2nccc(Oc3ccc(OCCCOc4ccccc4OC)cc3)c2cc1OC [Example 795, 6,7-Dimethoxy-4-{4-[3-(2-methoxy-phenoxy)propoxy]phenoxy}quinoline]
15	394					COc1cc2nccc(Oc3ccc(OCCCOc4ccccc4F)cc3)c2cc1OC [Example 796, 4-{4-[3-(2-Fluorophenoxy)propoxy]phenoxy}-6,7-dimethoxyquinoline]
27	403					COc1cc2nccc(Oc3ccc(OCCCOc4cccc(F)c4)cc3)c2cc1OC [Example 797, 4-{4-[3-(3-Fluorophenoxy)propoxy]phenoxy}-6,7-dimethoxyquinoline]
< 10	439					COc1cc2nccc(Oc3ccc(OCCCOc4ccc(F)cc4)cc3)c2cc1OC [Example 798, 4-{4-[3-(4-Fluorophenoxy)propoxy]phenoxy}-6,7-dimethoxyquinoline]
< 10	30					COc1cccc(NC(=O)COc2ccc(Oc3ncnc4cc(OC)c(OC)cc34)cc2)c1 [Example 800, N1-(3-Methoxyphenyl)-2-{4-[(6,7-dimethoxy-4-quinazolinyl)oxy]phenoxy}acetamide]
13	70					COc1cccc(CNC(=O)COc2ccc(Oc3ncnc4cc(OC)c(OC)cc34)cc2)c1 [Example 801, N1-(3-Methoxybenzyl)-2-{4-[(6,7-dimethoxy-4-quinazolinyl)oxy]phenoxy}acetamide]
< 10		42				COc1cc2ncnc(Oc3ccc(OCC(=O)N4CCc5ccccc5C4)cc3)c2cc1OC [Example 802, 2-{4-[(6,7-Dimethoxy-4-quinazolinyl)oxy]phenoxy}-1-(1,2,3,4-tetrahydro-2-isoquinolyl)-1-ethanone]
13		20				COc1cc2ncnc(Oc3ccc(OCC(=O)N4CCC(c5ccccc5)CC4)cc3)c2cc1OC [Example 803, 2-{4-[(6,7-Dimethoxy-4-quinazolinyl)oxy]phenoxy}-1-(4-phenylpiperidino)-1-ethanone]
37		20				COc1cc2ncnc(Oc3ccc(OCC(=O)N4CCC(Cc5ccccc5)CC4)cc3)c2cc1OC [Example 804, 1-(4-Benzylpiperidino)-2-{4-[(6,7-dimethoxy-4-quinazolinyl)oxy]phenoxy}-1-ethanone]
> 100		35	14			COc1cc2ncnc(Oc3ccc(OCC(=O)N4CCC(N5CCCCC5)CC4)cc3)c2cc1OC [Example 805, 2-{4-[(6,7-Dimethoxy-4-quinazolinyl)oxy]phenoxy}-1-(4-piperidinopiperidino)-1-ethanone]
> 100		20	20			CCN(CC)CCOc1ccc(Oc2ncnc3cc(OC)c(OC)cc23)cc1 [Example 807, N-(2-{4-[(6,7-Dimethoxy-4-quinazolinyl)oxy]phenoxy}ethyl)-N,N-diethylamine]
< 10	61					COc1cc2ncnc(Oc3ccc(OCCCOc4ccc(F)cc4)cc3)c2cc1OC [Example 808, 4-{4-[3-(4-Fluorophenoxy)propoxy]phenoxy}-6,7-dimethoxyquinazoline]
< 10				73		COc1cccc(OCCCOc2ccc(Oc3ncnc4cc(OC)c(OC)cc34)cc2)c1 [Example 809, 6,7-Dimethoxy-4-{4-[3-(3-methoxyphenoxy)propoxy]phenoxy}quinazoline]
18				269		COc1cc2ncnc(Oc3ccc(OCCCOc4ccccc4OC)cc3)c2cc1OC [Example 810, 6,7-Dimethoxy-4-{4-[3-(2-methoxyphenoxy)propoxy]phenoxy}quinazoline]
17					20	COc1cc2ncnc(Oc3ccc(OCCCn4ccc5ccccc54)cc3)c2cc1OC [Example 811, 4-{4-[3-(1H-1-Indolyl)propoxy]phenoxy}-6,7-dimethoxyquinazoline]

Structure (SMILES)	IC50 (PDGF-Ra) [nM]	IC50 (c-kit; 50 ng/ml h-SCF) [nM]	inhibition at 1 µM (c-kit; [1]) [%]	inhibition at 0.1 µM (PDGF-Ra) [%]	IC50 (c-kit; h-SCF stimulation) [nM]	inhibition at 1 µM (c-kit; figure in parentheses in −( )) [%]
CCCCOc1ccc(C(=O)NC(=S)Nc2ccc(Oc3ccnc4cc(OC)c(OC)cc34)cc2)cc1 [Example 751, N-(4-Butoxybenzoyl)-N′-{4-[(6,7-dimethoxy-4-quinolyl)oxy]phenyl}thiourea]	70		23			
COc1cc2nccc(Oc3ccc(NC(=S)NC(=O)C4C(C)(C)C4(C)C)cc3Cl)c2cc1OC [Example 760, N-{3-Chloro-4-[(6,7-dimethoxy-4-quinolyl)oxy]phenyl}-N′-[(2,2,3,3-tetramethylcyclopropyl)carbonyl]thiourea]	83		48			
